The values that follow come from publication PMC12624743 (ACS Infectious Diseases, 2025).

≈ marks a conversion by molar mass, not a printed value. Bounds are passed on as bounds.

In assay [1] the target is T1, N. gonorrhoeae topoisomerase IV ParC^D86N (Neisseria gonorrhoeae, UniProt P48374, D86N).
T1 construct: His; made in house
T1 sequence (P48374 1-768 D86N): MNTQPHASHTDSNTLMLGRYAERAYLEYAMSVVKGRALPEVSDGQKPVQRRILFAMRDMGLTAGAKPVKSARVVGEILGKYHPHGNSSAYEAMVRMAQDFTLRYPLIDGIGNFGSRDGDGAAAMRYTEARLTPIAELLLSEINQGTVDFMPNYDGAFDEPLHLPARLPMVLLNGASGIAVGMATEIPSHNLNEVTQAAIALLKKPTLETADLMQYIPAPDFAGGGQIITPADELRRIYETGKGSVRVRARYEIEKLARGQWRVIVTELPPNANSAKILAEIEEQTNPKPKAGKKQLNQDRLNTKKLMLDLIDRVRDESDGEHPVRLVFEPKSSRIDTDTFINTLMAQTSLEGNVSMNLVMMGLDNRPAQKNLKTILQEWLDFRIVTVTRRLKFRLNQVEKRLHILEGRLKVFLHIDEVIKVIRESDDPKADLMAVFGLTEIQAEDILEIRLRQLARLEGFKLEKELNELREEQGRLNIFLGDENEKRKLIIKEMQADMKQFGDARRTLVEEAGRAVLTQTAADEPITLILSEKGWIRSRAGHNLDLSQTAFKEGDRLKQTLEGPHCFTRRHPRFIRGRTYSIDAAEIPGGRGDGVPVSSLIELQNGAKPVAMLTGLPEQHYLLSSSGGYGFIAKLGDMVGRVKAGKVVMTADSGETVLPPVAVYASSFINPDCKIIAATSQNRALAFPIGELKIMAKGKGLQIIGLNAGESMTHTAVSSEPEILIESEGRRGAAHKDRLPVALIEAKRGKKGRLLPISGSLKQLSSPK
Put plainly: DNA cleavage assay, ParC^D86N topoisomerase IV. It counts as biochemical. The protocol: (§1) Some experiments replaced MgCl2 with an equivalent concentration of CaCl2 (10 mM), or 1.5 mM ATP was added to assay mixtures.
(§2) Reactions were incubated at 37 °C for 30 min with WT and mutant (GyrA^D90N, GyrA^A92T, GyrA^S91F, GyrA^D95G, or GyrA^S91F/D95G) N. gonorrhoeae gyrase, 10 min with WT N. gonorrhoeae topoisomerase IV, and 20 min with mutant (ParC^D86N, ParC^S88P, ParC^S87N, or ParC^E91G) N. gonorrhoeae topoisomerase IV. Enzyme-DNA cleavage complexes were trapped by adding 2 μL of 5% SDS followed by 2 μL of 250 mM EDTA (pH 8.0). Proteinase K was added (2 μL of a 0.8 mg/mL solution), and reaction mixtures were incubated at 45 °C for 30 min to digest the enzyme. Samples were mixed with 2 μL of loading buffer and heated at 45 °C for 2 min prior to electrophoresis in 1% agarose gels in 40 mM Tris-acetate (pH 8.3), and 2 mM EDTA containing 0.5 μg/mL ethidium bromide. DNA bands were visualized by midrange ultraviolet light and quantified using an Alpha Innotech digital imaging system (Protein Simple). Single-stranded DNA cleavage was monitored by the conversion of negatively supercoiled to nicked plasmid molecules.

The test system of assay [2] is N. gonorrhoeae FA1090-Q1 (GyrA^S91F/D95G, ParC WT). Put plainly: MIC by agar dilution, fluoroquinolone-resistant GyrA^S91F/D95G strain. In kind it is cell-based. Particulars: Neisseria gonorrhoeae. As for the experimental part: Minimum inhibitory concentration (MIC) of test compounds was determined by an agar dilution method, the reference testing method for N. gonorrhoeae according to the standards of the Clinical and Laboratory Standards Institute and the CDC.

The target of assay [3] is N. gonorrhoeae topoisomerase IV ParC^E91G (Neisseria gonorrhoeae, UniProt P48374, E91G). Description: biochemical. The protocol:
as §1, §2

Assay [4] addresses T2, N. gonorrhoeae gyrase GyrA^S91F (Neisseria gonorrhoeae, UniProt P48371, S91F).
T2 construct: His; made in house
Put plainly: Gyrase-catalyzed DNA supercoiling assay, GyrA^S91F. It counts as biochemical. As for the experimental part:
All proteins were His-tagged. N. gonorrhoeae WT gyrase (GyrA, GyrB) and topoisomerase IV (ParC, ParE) subunits as well as mutant GyrA^D90N, GyrA^A92T, GyrA^S91F, and GyrA^S91F/D95G gyrase and ParC^D86N and ParC^S88P topoisomerase IV were prepared as described previously. , N. gonorrhoeae mutant GyrA^D95G gyrase and mutant ParC^S87N and ParC^E91G topoisomerase IV were generated using a QuickChange II XL site-directed mutagenesis kit (Agilent Technologies) with custom primers for the desired mutations. […] The identities of all constructs were confirmed by DNA sequencing, and all enzymes were stored at −80 °C. In all assays, N. gonorrhoeae gyrase or topoisomerase IV was used as a 1:1 GyrA:GyrB or ParC:ParE mixture, respectively, and the stated enzyme concentration reflects that of the holoenzyme (A2B2).
Samples were mixed with 2 μL of loading dye [60% sucrose, 10 mM Tris–HCl (pH 7.9), 0.5% bromophenol blue, and 0.5% xylene cyanol FF] and incubated at 45 °C for 2 min before being subjected to electrophoresis on 1% agarose gels in 100 mM Tris-borate (pH 8.3) and 2 mM EDTA. […] DNA bands were visualized with medium-range ultraviolet light and quantified using an Alpha Innotech digital imaging system (Protein Simple). DNA supercoiling was monitored by the conversion of relaxed to supercoiled plasmid.

T2 sequence (P48371 whole entry S91F): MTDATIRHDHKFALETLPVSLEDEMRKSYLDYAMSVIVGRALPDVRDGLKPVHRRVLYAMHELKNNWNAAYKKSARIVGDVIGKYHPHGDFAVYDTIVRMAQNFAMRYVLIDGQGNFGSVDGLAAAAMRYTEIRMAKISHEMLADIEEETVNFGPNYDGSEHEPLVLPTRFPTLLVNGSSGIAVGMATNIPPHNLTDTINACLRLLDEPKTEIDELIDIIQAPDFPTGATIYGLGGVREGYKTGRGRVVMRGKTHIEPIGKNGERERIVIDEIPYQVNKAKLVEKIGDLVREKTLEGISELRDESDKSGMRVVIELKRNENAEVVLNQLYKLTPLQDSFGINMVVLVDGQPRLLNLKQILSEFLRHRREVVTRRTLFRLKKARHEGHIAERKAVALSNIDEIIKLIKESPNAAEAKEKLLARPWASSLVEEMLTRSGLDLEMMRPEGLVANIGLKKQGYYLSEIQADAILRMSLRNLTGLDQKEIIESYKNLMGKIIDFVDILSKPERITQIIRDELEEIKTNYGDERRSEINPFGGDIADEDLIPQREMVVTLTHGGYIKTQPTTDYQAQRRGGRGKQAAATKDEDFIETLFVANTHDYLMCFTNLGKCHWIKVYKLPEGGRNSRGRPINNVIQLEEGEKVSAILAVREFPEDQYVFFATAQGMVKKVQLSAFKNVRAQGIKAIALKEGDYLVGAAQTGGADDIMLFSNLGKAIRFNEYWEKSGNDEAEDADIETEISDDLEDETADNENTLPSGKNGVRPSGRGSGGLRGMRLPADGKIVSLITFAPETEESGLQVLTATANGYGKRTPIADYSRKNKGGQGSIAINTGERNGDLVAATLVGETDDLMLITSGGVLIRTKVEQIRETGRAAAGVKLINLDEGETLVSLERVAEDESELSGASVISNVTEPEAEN
T2 sequence (P22118 whole entry partner): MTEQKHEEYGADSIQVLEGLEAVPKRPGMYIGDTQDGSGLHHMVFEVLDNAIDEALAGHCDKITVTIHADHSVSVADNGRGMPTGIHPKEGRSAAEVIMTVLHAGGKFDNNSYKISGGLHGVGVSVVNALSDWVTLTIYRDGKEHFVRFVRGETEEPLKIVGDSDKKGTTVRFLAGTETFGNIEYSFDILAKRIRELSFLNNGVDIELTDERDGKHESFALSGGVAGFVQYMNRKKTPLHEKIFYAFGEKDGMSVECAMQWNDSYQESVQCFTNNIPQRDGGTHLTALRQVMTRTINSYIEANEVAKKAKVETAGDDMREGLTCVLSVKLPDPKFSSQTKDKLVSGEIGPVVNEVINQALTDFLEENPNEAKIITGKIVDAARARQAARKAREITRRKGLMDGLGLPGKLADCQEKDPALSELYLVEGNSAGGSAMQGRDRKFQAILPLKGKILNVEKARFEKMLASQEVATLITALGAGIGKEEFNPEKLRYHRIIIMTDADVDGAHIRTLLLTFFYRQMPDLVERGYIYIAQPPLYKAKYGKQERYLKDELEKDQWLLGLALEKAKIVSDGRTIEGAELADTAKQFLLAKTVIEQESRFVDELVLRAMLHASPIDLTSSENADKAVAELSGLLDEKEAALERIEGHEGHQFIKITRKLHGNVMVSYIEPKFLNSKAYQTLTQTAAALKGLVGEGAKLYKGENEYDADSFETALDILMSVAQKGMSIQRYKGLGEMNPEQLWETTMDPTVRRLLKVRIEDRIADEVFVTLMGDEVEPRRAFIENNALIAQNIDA
Chain of N. gonorrhoeae topoisomerase IV ParC^E91G (P48374 whole entry E91G): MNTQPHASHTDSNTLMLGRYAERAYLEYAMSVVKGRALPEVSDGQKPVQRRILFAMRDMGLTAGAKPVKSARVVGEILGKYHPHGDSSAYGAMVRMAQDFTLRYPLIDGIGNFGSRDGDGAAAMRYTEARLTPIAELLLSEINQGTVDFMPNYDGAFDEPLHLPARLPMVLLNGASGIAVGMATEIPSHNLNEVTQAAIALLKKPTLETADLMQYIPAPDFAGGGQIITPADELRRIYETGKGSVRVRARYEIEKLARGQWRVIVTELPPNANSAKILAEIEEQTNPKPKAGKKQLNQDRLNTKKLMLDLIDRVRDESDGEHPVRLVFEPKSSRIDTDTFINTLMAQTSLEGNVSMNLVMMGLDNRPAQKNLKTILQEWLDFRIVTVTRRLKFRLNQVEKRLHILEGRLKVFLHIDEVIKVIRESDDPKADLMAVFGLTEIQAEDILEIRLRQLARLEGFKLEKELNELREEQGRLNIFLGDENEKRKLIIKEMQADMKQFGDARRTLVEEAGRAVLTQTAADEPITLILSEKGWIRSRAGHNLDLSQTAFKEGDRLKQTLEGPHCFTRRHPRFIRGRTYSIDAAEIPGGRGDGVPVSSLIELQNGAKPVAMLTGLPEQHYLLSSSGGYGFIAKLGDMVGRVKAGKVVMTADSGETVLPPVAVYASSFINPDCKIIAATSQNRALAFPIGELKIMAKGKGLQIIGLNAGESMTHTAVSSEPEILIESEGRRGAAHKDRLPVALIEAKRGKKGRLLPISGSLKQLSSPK

With `O=c1ccc2ncc(=O)n3c2n1C[C@H]3CN1CCC(NCc2cc3c(cn2)OCCC3)CC1` [gepotidacin], the “Adj-Max Cleavage, single-stranded DNA breaks” value in assay [1] came to 9.3%. The EC50 in assay [1] (ParC D86N topoisomerase IV, read-out: CC50, single-stranded DNA cleavage) is over 50 µM; in assay [3], 0.2 µM. In assay [2], this compound displayed an MIC of 0.125 mg/L (≈ 0.279 µM). In assay [4] (GyrA S91F gyrase, read-out: IC50, inhibition of DNA supercoiling), the IC50 was determined as 7.5 µM. In addition, in assay [4] (GyrA S91F vs WT), the “fold increase of supercoiling IC50 vs WT gyrase” value is reported as about 1.5 fold.
